This is an account of results in patent US7101878B1 (Agouron Pharmaceuticals, Inc., priority 1998, dated 2006).

For the experiment, the target named is T1, human GnRH receptor (Homo sapiens, UniProt P30968).
T1 construct: expressed in transfected cells; host or cells: HEK 293 (hGnRH-R/293, from Dr. Stuart Sealfon)
T1 sequence (P30968 1-328): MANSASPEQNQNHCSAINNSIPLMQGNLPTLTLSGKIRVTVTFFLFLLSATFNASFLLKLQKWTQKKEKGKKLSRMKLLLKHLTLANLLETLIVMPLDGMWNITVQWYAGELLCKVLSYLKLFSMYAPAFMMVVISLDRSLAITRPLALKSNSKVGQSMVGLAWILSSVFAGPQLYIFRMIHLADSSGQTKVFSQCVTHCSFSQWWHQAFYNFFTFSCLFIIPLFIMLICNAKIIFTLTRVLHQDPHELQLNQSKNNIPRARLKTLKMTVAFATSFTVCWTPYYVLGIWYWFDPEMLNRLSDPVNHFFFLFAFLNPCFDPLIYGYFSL
Nature of the experiment: Radioligand binding, 125I-GnRH-A displacement, membranes of HEK 293 cells with human GnRH receptor. The method in brief:
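Bound tracer was separated by filtration through polyethyleneimine-soaked GF/C filters and counted by liquid scintillation. IC50 from curve fitting; other species were tested under the same conditions.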

Setting [1] is: 1 uM, read-out: % Inhib. @ 1 uM hGnRH.
Setting [2] is: 1 h, repeat of % Inhib. at 1 uM, read-out: Repeats @ 1 uM hGnRH.

Where two headings read alike, the source gives them in different places.

Take `Cc1cnc(CNC(=O)c2ccc(Cc3cc4c(cc3C)C(C)(C)CCC4(C)C)o2)cn1` [drawing 1009]: the inhibition at 1 µM is 107% (1 h, read-out: Repeats @ 1 uM hGnRH) and 102% (read-out: % Inhib. @ 1 uM hGnRH).
As for `Cc1cc2c(cc1Cc1ccc(C(=O)NCCc3c[nH]c4ccccc34)o1)C(C)(C)CCC2(C)C` [drawing 1012], the inhibition at 1 µM turned out to be 78% under setting [1] and 81% under setting [2].
Take `Cc1cc2c(cc1Cc1ccc(C(=O)NCc3ccc(-c4csnn4)cc3)o1)C(C)(C)CCC2(C)C` [drawing 1013]: the inhibition at 1 µM by setting is: under setting [1], 87%; under setting [2], 92%.
As to `Cc1cc2c(cc1Cc1ccc(C(=O)NCc3ccc(C(=O)O)cc3)o1)C(C)(C)CCC2(C)C` [drawing 1016], the inhibition at 1 µM by setting is: under setting [1], 44%; under setting [2], 45%.
For `Cc1cc2c(cc1Cc1ccc(C(=O)NCCc3ccc(N)cc3)o1)C(C)(C)CCC2(C)C` [drawing 1017], the inhibition at 1 µM runs as follows: under setting [1], 57%; under setting [2], 64%.
With `Cc1cc2c(cc1Cc1ccc(C(=O)NCC(F)(F)F)o1)C(C)(C)CCC2(C)C` [drawing 1018], the inhibition at 1 µM is 18% under setting [1] and 9% under setting [2].
Regarding `Cc1cc2c(cc1Cc1ccc(C(=O)NCCc3cccc(C(F)(F)F)c3)o1)C(C)(C)CCC2(C)C` [drawing 1020], the inhibition at 1 µM is, setting by setting: under setting [1], 33%; under setting [2], 89%.
Turning to `Cc1cc2c(cc1Cc1ccc(C(=O)NCC(=O)Nc3ccc([N+](=O)[O-])cc3)o1)C(C)(C)CCC2(C)C` [drawing 1022], the inhibition at 1 µM is, setting by setting: under setting [1], 83%; under setting [2], 86%.
Regarding `Cc1cc2c(cc1Cc1ccc(C(=O)NCCc3cccs3)o1)C(C)(C)CCC2(C)C` [drawing 1023], the inhibition at 1 µM runs as follows: under setting [1], 63%; under setting [2], 64%.
As for `Cc1cc2c(cc1Cc1ccc(C(=O)NCC3CCC(C(=O)O)CC3)o1)C(C)(C)CCC2(C)C` (stereo not drawn) [drawing 1024], the inhibition at 1 µM under setting [1] was 66% and the inhibition at 1 µM under setting [2] turned out to be 76%.
As for `Cc1cc2c(cc1Cc1ccc(C(=O)NCCc3ccncc3)o1)C(C)(C)CCC2(C)C` [drawing 1025], the inhibition at 1 µM was found to be 83% under setting [1] and 84% under setting [2].
For `COc1cc(CNC(=O)c2ccc(Cc3cc4c(cc3C)C(C)(C)CCC4(C)C)o2)cc(OC)c1` [drawing 1026] the same measures were 24% and 35%.
`CNCCCNC(=O)c1ccc(Cc2cc3c(cc2C)C(C)(C)CCC3(C)C)o1` [drawing 1027]: the inhibition at 1 µM by setting is: under setting [1], -22%; under setting [2], -25%.
`Cc1cc2c(cc1Cc1ccc(C(=O)NCc3cccc(NC(=O)N(Cc4ccccc4)c4ccccc4)c3)o1)C(C)(C)CCC2(C)C` [drawing 1029]: the inhibition at 1 µM runs as follows: under setting [1], -4%; under setting [2], 2%.
Consider `Cc1cc2c(cc1Cc1ccc(C(=O)NCc3ccc(F)c(F)c3)o1)C(C)(C)CCC2(C)C` [drawing 1030], for which the inhibition at 1 µM worked out at 55% under setting [1] and 60% under setting [2].
On to `Cc1cc2c(cc1Cc1ccc(C(=O)NCCc3c[nH]cn3)o1)C(C)(C)CCC2(C)C` [drawing 1031], for which the inhibition at 1 µM under setting [1] worked out at 22% and the inhibition at 1 µM under setting [2] turned out to be 28%.
As to `Cc1cc2c(cc1Cc1ccc(C(=O)NCCc3cccnc3)o1)C(C)(C)CCC2(C)C` [drawing 1032], the inhibition at 1 µM under setting [1] worked out at 80% and the inhibition at 1 µM under setting [2] stood at 90%.
In the case of `Cc1cc2c(cc1Cc1ccc(C(=O)NCCCNCCCCNCCCN)o1)C(C)(C)CCC2(C)C` [drawing 1034], the inhibition at 1 µM under setting [1] is -20% and the inhibition at 1 µM under setting [2] is -26%.
Take `Cc1cc2c(cc1Cc1ccc(C(=O)NC3CCN(c4nccc(NCC5CCCO5)n4)C3)o1)C(C)(C)CCC2(C)C` (stereo not drawn) [drawing 1036]: the inhibition at 1 µM is, setting by setting: under setting [1], -12%; under setting [2], 0%.
Consider `Cc1cc2c(cc1Cc1ccc(C(=O)NCC3CCN(c4nccc(NCC5CCCO5)n4)CC3)o1)C(C)(C)CCC2(C)C` (stereo not drawn) [drawing 1037], for which the inhibition at 1 µM reads like this: under setting [1], 35%; under setting [2], 35%.
Take `Cc1cc2c(cc1Cc1ccc(C(=O)NCCc3cccc(Oc4ccccc4)c3)o1)C(C)(C)CCC2(C)C` [drawing 1039]: the inhibition at 1 µM is -2% under setting [1] and 4% under setting [2].
On to `Cc1cc2c(cc1Cc1ccc(C(=O)NCCc3ccccc3Oc3ccccc3)o1)C(C)(C)CCC2(C)C` [drawing 1040], for which the inhibition at 1 µM under setting [1] is -11% and the inhibition at 1 µM under setting [2] was -8%.
For `Cc1cc2c(cc1Cc1ccc(C(=O)NCCN3CCNC3=O)o1)C(C)(C)CCC2(C)C` [drawing 1041], the inhibition at 1 µM under setting [1] was determined as 32% and the inhibition at 1 µM under setting [2] was 44%.
As for `Cc1cc2c(cc1Cc1ccc(C(=O)NCCNCCNc3ccccc3)o1)C(C)(C)CCC2(C)C` [drawing 1043], the inhibition at 1 µM runs as follows: under setting [1], -1%; under setting [2], -9%.
Take `Cc1cc2c(cc1Cc1ccc(C(=O)NC3CCCC(Nc4ccnc(NCC5CCCO5)n4)C3)o1)C(C)(C)CCC2(C)C` (stereo not drawn) [drawing 1045]: the inhibition at 1 µM is, setting by setting: under setting [1], 17%; under setting [2], 25%.
For `Cc1cc2c(cc1Cc1ccc(C(=O)NCCCCNc3nccc(NCC4CCCO4)n3)o1)C(C)(C)CCC2(C)C` (stereo not drawn) [drawing 1047] the same measures were 27% and 38%.
Take `Cc1cc2c(cc1Cc1ccc(C(=O)NCC3CN(Cc4ccccc4)CCO3)o1)C(C)(C)CCC2(C)C` (stereo not drawn) [drawing 1049]: the inhibition at 1 µM by setting is: under setting [1], 35%; under setting [2], 42%.
Take `Cc1cc2c(cc1Cc1ccc(C(=O)NCCCN3CCCCC3)o1)C(C)(C)CCC2(C)C` [drawing 1050]: the inhibition at 1 µM by setting is: under setting [1], -3%; under setting [2], 8%.
In the case of `Cc1cc2c(cc1Cc1ccc(C(=O)NCCc3c[nH]cn3)o1)C(C)(C)CCC2(C)C` [drawing 1051], the “% Inhib. @ 1 uM hGnRH” value (1 uM) is listed as 32%. Further, the “Repeats @ 1 uM hGnRH” value (repeat of % Inhib. at 1 uM) came out at 36.
In the case of `Cc1cc2c(cc1Cc1ccc(C(=O)NCc3ccc(S(N)(=O)=O)cc3)o1)C(C)(C)CCC2(C)C` [drawing 1052], the inhibition at 1 µM worked out at 71% under setting [1] and 76% under setting [2].
For `Cc1cc2c(cc1Cc1ccc(C(=O)NCc3nc4ccccc4[nH]3)o1)C(C)(C)CCC2(C)C` [drawing 1053] the same measures were 100% and 101%.
Consider `Cc1cc2c(cc1Cc1ccc(C(=O)NCCc3ccc4c(c3)OCO4)o1)C(C)(C)CCC2(C)C` [drawing 1055], for which the inhibition at 1 µM under setting [1] was found to be 51% and the inhibition at 1 µM under setting [2] worked out at 56%.
On to `COc1ccc(C(=O)CNC(=O)c2ccc(Cc3cc4c(cc3C)C(C)(C)CCC4(C)C)o2)cc1` [drawing 1056], for which the inhibition at 1 µM by setting is: under setting [1], 21%; under setting [2], 23%.
Turning to `Cc1cc2c(cc1Cc1ccc(C(=O)NCCc3ccc([N+](=O)[O-])cc3)o1)C(C)(C)CCC2(C)C` [drawing 1057], the inhibition at 1 µM by setting is: under setting [1], 30%; under setting [2], 44%.
For the compound `COC(=O)CCCCCNC(=O)c1ccc(Cc2cc3c(cc2C)C(C)(C)CCC3(C)C)o1` [drawing 1059], the inhibition at 1 µM by setting is: under setting [1], 85%; under setting [2], 85%.
As to `Cc1cc2c(cc1Cc1ccc(C(=O)NCc3nc4ccccc4[nH]3)o1)C(C)(C)CCC2(C)C` [drawing 1060], the “% Inhib. @ 1 uM hGnRH” value (1 uM) came out at 101%. The “Repeats @ 1 uM hGnRH” value (repeat of % Inhib. at 1 uM) is given as 99.
